tested on: HCV replicon Luc Neo ET; test: HCV replication inhibition assay (replicon assay, luciferase reporter); type: cell-based; conditions: Hepatitis C virus; Huh-7 cell lines containing HCV replicon Luc Neo ET; 72 hours with compound; 1 % DMSO; firefly luciferase reporter; concentration that produces 50 % of replication inhibition; read-out: EC50 Replicon LucneoET
Description: The compounds according to the present invention were tested for their ability to inhibit HCV replication as follows:
Huh-7 cell lines containing HCV replicon Luc Neo ET (Reblikon) were maintained in DMEM supplemented with 10% SVF, 2 mM glutamine, and 1 X NEAA, 100 U / ml penicillin, and 100 µg / ml streptomycine. Cells were maintained in medium supplemented with 0.5 mg/ml G418, at 37°C and 5% CO2 in a humidified atmosphere. Cells were dissociated at sub confluence with trypsin EDTA 1X.
Replicon Luc Neo ET is bicistronic expression constructs (Lohmann et al, 1999, Science 285, 110-113). In brief, the structural genes of the HCV genome were replaced by heterologous sequences; the gene encoding the neomycin phosphotransferase (NPT) and the internal ribosome entry site (IRES) of the encephalomyocarditis virus (EMCV). The bicistronic construct is therefore composed of the following elements: HCV-IRES nucleotides 1-389 for Luc Neo ET, the NPT gene, the EMCV-IRES directing translation of downstream HCV sequences from NS2 or NS3 up to the authentic 3' end of the genome. HCV Polyprotein of Luc Neo ET replicon harbours the cell culture adaptive mutations E1202G, T1280I, K1846T. G418-resistance is only possible with cells containing high amounts of replicon.
Cells were dissociated the day before addition of compounds and seeded in 96 well-plates at a final concentration of 27 777.77 cells.ml^-1.cm^-2 in 90µl final volume of culture medium per well and were maintained at 37°C and 5% CO2 in a humidified atmosphere for 24 hours. 10 µl of compounds to be tested were added 24 hours after seeding. Final concentration of DMSO was 1 %. Cells were incubated in the presence of compounds for 72 hours after which expression of firefly luciferase reporter gene was quantified. Briefly, culture medium was removed and cells were lysed by addition of 100 µl of lysis buffer containing 125 mM Tris Phosphate ph 7.8, 10 mM EDTA, 5 mM DTT, 50 % glycerol and 5 % Triton. Plates were vortexed 10 min at 1300 rpm. 100µl of luciferin solution 1X were added to each well. Luciferin solution contained 40 mM Tris Phosphate ph 7.8, 0.2 mM EDTA, 67 mM DTT, 2.14 mM MgCl2, 5.4 mM MgSO4, 4.7 x 10^-4 M luciferin, 5.3 x 10^-4 M ATP and 2.7 x 10^-4 M Acetyl co enzyme A. Luminescence was immediately measured with Berthold Microlumat Plus LB 96V luminometer with an integration of 1 sec. Inhibition was calculated using the formula: % inhibition = 1-[(RLUsample-RLUbackground)/(RLUsignal-RLUbackground)].
The Table 1 below illustrates data on the biological activity of compounds of the present invention. Results are expressed as EC50 which is the concentration that produces 50 % of replication inhibition. Table 1. HCV replication inhibition assay

Molecule	EC50 [µM]
Cc1ccc(NC(=O)CC2C(=O)N(c3ccccc3)C(=S)N2CCc2ccc(Cl)cc2)cc1 (stereo not shown) [Example 37, 2-{3-[2-(4-chlorophenyl)ethyl]-5-oxo-1-phenyl-2-sulfanylideneimidazolidin-4-yl}-N-(4-methylphenyl)acetamide]	< 5
O=C(CC1C(=O)N(c2ccccc2)C(=S)N1CCc1ccc(Cl)cc1)Nc1ccc(Cl)c(Cl)c1 (stereo not shown) [Example 38, 2-{3-[2-(4-chlorophenyl)ethyl]-5-oxo-1-phenyl-2-sulfanylideneimidazolidin-4-yl}-N-(3,4-dichlorophenyl)acetamide]	< 5
NC(=O)c1ccc(NC(=O)CC2C(=O)N(c3ccccc3)C(=S)N2CCc2ccc(Cl)cc2)cc1 (stereo not shown) [Example 40, 4-(2-{3-[2-(4-chlorophenyl)ethyl)-5-oxo-1-phenyl-2-sulfanylideneimidazolidin-4-yl}acetamido)benzamide]	< 5
O=C(CC1C(=O)N(c2ccc(F)cc2)C(=S)N1CCc1ccc(Cl)cc1)Nc1ccc(N2CCOCC2)cc1 (stereo not shown) [Example 41, 2-{3-[2-(4-chlorophenyl)ethyl]-1-(4-fluorophenyl)-5-oxo-2-sulfanylideneimidazolidin-4-yl}-N-[4-(morpholin-4-yl)phenyl]acetamide]	< 0.5
COc1ccc(CCN2C(=O)N(c3ccc(F)cc3)C(=O)C2CC(=O)Nc2ccc(N(C)C)cc2)cc1 (stereo not shown) [Example 42, N-[4-(dimethylamino)phenyl]-2-[1-(4-fluorophenyl)-3-[2-(4-methoxyphenyl)ethyl]-2,5-dioxoimidazolidin-4-yl]acetamide]	< 5
COCCN(C)c1ccc(NC(=O)CC2C(=O)N(c3ccc(F)cc3)C(=O)N2CCc2ccc(OC)cc2)cc1 (stereo not shown) [Example 43, 2-[1-(4-fluorophenyl)-3-[2-(4-methoxyphenyl)ethyl]-2,5-dioxoimidazolidin-4-yl]-N-{4-[(2-methoxyethyl)(methyl)amino]phenyl}acetamide]	< 5
COc1ccc(CCN2C(=O)N(c3ccc(F)cc3)C(=O)C2CC(=O)Nc2ccc(N(C)C)c(C)c2)cc1 (stereo not shown) [Example 44, N-[4-(dimethylamino)-3-methylphenyl]-2-[1-(4-fluorophenyl)-3-[2-(4-methoxyphenyl)ethyl]-2,5-dioxoimidazolidin-4-yl]acetamide]	< 30
CN(C)c1ccc(NC(=O)CC2C(=O)N(c3ccc(F)cc3)C(=O)N2CCc2cccs2)cc1 (stereo not shown) [Example 45, N-[4-(dimethylamino)phenyl]-2-[1-(4-fluorophenyl)-2,5-dioxo-3-[2-(thiophen-2-yl)ethyl]imidazolidin-4-yl]acetamide]	< 5
COc1ccc(NC(=O)CC2C(=O)N(c3ccc(F)cc3)C(=S)N2CCc2cccs2)cc1 (stereo not shown) [Example 46, 2-[1-(4-fluorophenyl)-5-oxo-2-sulfanylidene-3-[2-(thiophen-2-yl)ethyl]imidazolidin-4-yl]-N-(4-methoxyphenyl)acetamide]	< 0.5
COc1ccc(NC(=O)CC2C(=O)N(c3ccc(F)cc3)C(=S)N2CCc2ccc(N(C)C)cc2)cc1 (stereo not shown) [Example 47, 2-(3-{2-[4-(dimethylamino)phenyl]ethyl}-1-(4-fluorophenyl)-5-oxo-2-sulfanylideneimidazolidin-4-yl)-N-(4-methoxyphenyl)acetamide]	< 0.5

same assay, conditions: Huh-7 cell lines containing HCV replicon Luc Neo ET; 72 hours with compound; 1 % DMSO; firefly luciferase reporter; concentration that produces 50 % of replication inhibition; read-out: EC50 Replicon LucneoET

Molecule	EC50 [µM]
2-{3-[2-(4-chlorophenyl)ethyl]-1-(4-fluorophenyl)-4-hydroxy-5-oxo-2-sulfanylideneimidazolidin-4-yl}-N-[4-(dimethylamino)phenyl]acetamide [Example 65]	< 0.5
2-{3-[2-(4-chlorophenyl)ethyl]-1-(4-fluorophenyl)-5-oxo-2-sulfanylideneimidazolidin-4-yl}-N-(5-methoxypyridin-2-yl)acetamide [Example 67]	< 5
2-{3-[2-(4-chlorophenyl)ethyl]-4-hydroxy-5-oxo-1-phenyl-2-sulfanylideneimidazolidin-4-yl}-N-[4-(dimethylamino)phenyl]acetamide [Example 63]	< 0.5
2-{3-[2-(4-chlorophenyl)ethyl]-5-oxo-1-phenyl-2-sulfanylideneimidazolidin-4-yl}-N-(pyridin-3-ylmethyl)acetamide [Example 56]	< 5
CCCOc1ccc(NC(=O)CC2C(=O)N(c3ccccc3)C(=S)N2CCc2ccccc2)cc1 (stereo not shown) [Example 1]	< 0.5
CCCOc1ccc(NC(=O)CC2C(=O)N(c3ccccc3)C(=S)N2CCc2ccc(Cl)cc2)cc1 (stereo not shown) [Example 2]	< 0.5
COc1ccc(CCN2C(=S)N(c3ccccc3)C(=O)C2CC(=O)Nc2ccc(OC)cc2)cc1 (stereo not shown) [Example 3]	< 0.5
COc1ccc(NC(=O)CC2C(=O)N(c3ccccc3)C(=S)N2CCc2ccc(OC)c(OC)c2)cc1 (stereo not shown) [Example 4]	< 5
COc1ccc(NC(=O)CC2C(=O)N(c3ccccc3)C(=S)N2CCc2ccc(Cl)cc2)cc1 (stereo not shown) [Example 5]	< 0.5
COc1ccc(CCN2C(=S)N(c3ccc(F)cc3)C(=O)C2CC(=O)Nc2ccc(OC)cc2)cc1 (stereo not shown) [Example 6]	< 0.5
CCOc1ccc(NC(=O)CC2C(=O)N(c3ccccc3)C(=S)N2CCc2ccccc2F)cc1 (stereo not shown) [Example 7]	< 0.5
O=C(CC1C(=O)N(c2ccc(F)cc2)C(=S)N1CCc1ccc(Cl)cc1)Nc1ccccc1 (stereo not shown) [Example 8]	< 0.5
COc1ccc(NC(=O)CC2C(=O)N(c3ccc(F)cc3)C(=S)N2CCc2ccc(Cl)cc2)cc1 (stereo not shown) [Example 9]	< 0.5
CCCOc1ccc(NC(=O)CC2C(=O)N(c3ccccc3)C(=S)N2CCCN2CCN(Cc3ccccc3)CC2)cc1 (stereo not shown) [Example 10]	< 5
O=C(CC1C(=O)N(c2ccccc2)C(=S)N1CCc1ccc(Cl)cc1)Nc1ccccc1 (stereo not shown) [Example 11]	< 5
COc1ccc(NC(=O)CC2C(=O)N(c3ccccc3)C(=O)N2CCC2=CCCCC2)cc1 (stereo not shown) [Example 12]	< 0.5
COc1ccc(NC(=O)CC2C(=O)N(c3ccc(F)cc3)C(=S)N2CCCN2CCN(Cc3ccccc3)CC2)cc1 (stereo not shown) [Example 13]	< 0.5

Molecule	EC50 [µM]
COc1ccc(NC(=O)CC2C(=O)N(c3ccc(F)cc3)C(=S)N2CCCN2CCN(c3ccccc3)CC2)cc1 (stereo not shown) [Example 14]	< 0.5
CCOc1ccc(NC(=O)CC2C(=O)N(c3ccccc3)C(=O)N2CCC(C)C)cc1 (stereo not shown) [Example 15]	< 5
COc1ccc(NC(=O)CC2C(=O)N(c3ccc(F)cc3)C(=O)N2CCc2cccs2)cc1 (stereo not shown) [Example 16]	< 5
COc1ccc2[nH]cc(CCN3C(=S)N(c4ccccc4)C(=O)C3CC(=O)Nc3ccccc3)c2c1 (stereo not shown) [Example 17]	< 5
CCOc1cccc(NC(=O)CC2C(=O)N(c3ccccc3)C(=S)N2CCc2ccc(F)cc2)c1 (stereo not shown) [Example 18]	< 5
CCOc1ccc(NC(=O)CC2C(=O)N(c3cccc(C(F)(F)F)c3)C(=S)N2CCc2ccccc2F)cc1 (stereo not shown) [Example 19]	< 5
O=C(CC1C(=O)N(c2ccc(Cl)cc2)C(=S)N1CCc1ccc(Cl)cc1)Nc1ccc(F)cc1 (stereo not shown) [Example 20]	< 30
O=C(CC1C(=O)N(c2ccccc2)C(=S)N1CCc1ccccc1)Nc1ccc(Cl)cc1 (stereo not shown) [Example 22]	< 5
Cc1ccsc1CCN1C(=S)N(c2ccccc2)C(=O)C1CC(=O)Nc1ccc(F)cc1 (stereo not shown) [Example 23]	< 5
O=C(CC1C(=O)N(c2ccccc2)C(=S)N1CCc1ccc(Cl)cc1)Nc1ccc(Cl)cc1 (stereo not shown) [Example 24]	< 5
COC(=O)c1ccc(NC(=O)CC2C(=O)N(c3ccccc3)C(=S)N2CCc2ccc(Cl)cc2)cc1 (stereo not shown) [Example 25]	< 5
COc1ccc(NC(=O)CC2C(=O)N(c3ccc(C)cc3)C(=S)N2CCc2ccccc2)cc1 (stereo not shown) [Example 26]	< 5
COCCCN1C(=S)N(c2ccc(F)cc2)C(=O)C1CC(=O)Nc1ccc(OC)cc1 (stereo not shown) [Example 27]	< 30
CCCOc1ccc(NC(=O)CC2C(=O)N(C3CCCCC3)C(=S)N2Cc2ccc(OC)cc2)cc1 (stereo not shown) [Example 29]	< 30
CCCOc1ccc(NC(=O)CC2C(=O)N(c3ccc(F)cc3)C(=S)N2CCCN2CCN(CC)CC2)cc1 (stereo not shown) [Example 31]	< 30
COc1ccc(NC(=O)CC2C(=O)N(Cc3ccccc3)C(=S)N2CCc2ccc(Cl)cc2)cc1 (stereo not shown) [Example 32]	< 30

— patent publication EP2664616A1, “Hydantoin and thiohydantoin derivatives as antiviral drugs” (priority 2012, dated 2013)
